Our source for the DC50 values is patent US20240190880A1 (THE REGENTS OF THE UNIVERSITY OF MICHIGAN, priority 2021, published 2024).

By DC50 is commonly meant the concentration at which degradation of the target reaches its halfway point.

The first assay addresses T1, ER (Homo sapiens, UniProt P03372).
T1 construct: host or cells: T47D and MCF7 human breast cancer cells
T1 sequence (P03372 1-595): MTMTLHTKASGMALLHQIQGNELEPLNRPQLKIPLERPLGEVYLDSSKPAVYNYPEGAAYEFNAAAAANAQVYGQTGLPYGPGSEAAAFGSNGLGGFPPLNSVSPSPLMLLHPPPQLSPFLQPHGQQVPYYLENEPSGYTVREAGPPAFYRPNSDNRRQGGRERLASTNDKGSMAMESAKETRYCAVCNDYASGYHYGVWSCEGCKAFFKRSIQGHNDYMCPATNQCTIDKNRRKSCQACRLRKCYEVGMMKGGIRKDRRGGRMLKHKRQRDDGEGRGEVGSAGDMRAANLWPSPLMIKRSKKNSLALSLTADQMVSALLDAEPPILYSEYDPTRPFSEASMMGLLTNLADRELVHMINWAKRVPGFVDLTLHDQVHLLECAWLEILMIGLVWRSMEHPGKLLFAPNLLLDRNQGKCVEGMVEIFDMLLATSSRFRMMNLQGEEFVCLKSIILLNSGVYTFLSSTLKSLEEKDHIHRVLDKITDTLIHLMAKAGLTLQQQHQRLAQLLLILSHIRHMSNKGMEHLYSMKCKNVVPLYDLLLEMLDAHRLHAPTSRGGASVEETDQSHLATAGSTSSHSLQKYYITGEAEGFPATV
The experiment in a line: ER degradation activity, in-cell western blot analysis in T47D cells. It counts as cell-based. As to conditions: 16 hours, Table A does not say which cell line (T47D or MCF7), read-out: Potency (DC50). In a few lines:
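Read-out is near-infrared fluorescence from an in-cell western, expressed as ER percentage relative to untreated and DMSO controls taken as 100%. T47D breast cancer cells received compound for 16 h in 0.5% DMSO.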
With `C[C@@H]1Cc2c([nH]c3ccccc23)[C@@H](c2c(F)cc(N3CCC(N4CCN(C(=O)CN5Cc6cc7c(cc6C5)C(=O)N(C5CCC(=O)NC5=O)C7=O)CC4)CC3)cc2F)N1CC(F)F` (some centres unmarked) [E 109], the half-maximal degradation concentration (DC50) was less than 10 nM.

For the compound `C[C@@H]1Cc2c([nH]c3ccccc23)[C@@H](c2cnc(N3CCC4(CC3)CN(C(=O)CN3Cc5cc6c(cc5C3)C(=O)N(C3CCC(=O)NC3=O)C6=O)C4)nc2)N1CC(F)(F)F` (stereo partly drawn) [E 255, 2-(2,6-dioxopiperidin-3-yl)-6-(2-(7-(5-((1R,3R)-3-methyl-2-(2,2,2-trifluoroethyl)-2,3,4,9-tetrahydro-1H-pyrido[3,4-b]indol-1-yl)pyrimidin-2-yl)-2,7-diazaspiro[3.5]nonan-2-yl)-2-oxoethyl)-6,7-dihydropyrrolo[3,4-f]isoindole-1,3(2H,5H)-dione], the DC50 is less than 10 nM. `C[C@@H]1Cc2cc(O)ccc2[C@@H](c2c(F)cc(N3CCN(C(=O)[C@H]4CC[C@H](N5Cc6cc7c(cc6C5)C(=O)N(C5CCC(=O)NC5=O)C7=O)CC4)CC3)cc2F)N1CC(F)F` (mixture of isomers) [E 353, rac-6-((1S,4r)-4-(4-(4-((1S,3R)-2-(2,2-difluoroethyl)-6-hydroxy-3-methyl-1,2,3,4-tetrahydroisoquinolin-1-yl)-3,5-difluorophenyl)piperazine-1-carbonyl)cyclohexyl)-2-(2,6-dioxopiperidin-3-yl)-6,7-dihydropyrrolo[3,4-f]isoindole-1,3(2H,5H)-dione]: the DC50 was greater than 100 nM. Take `C[C@@H]1Cc2cc(O)ccc2C(c2ccc(N3CCC(C(=O)N4CCC(N5Cc6cc7c(cc6C5)C(=O)N(C5CCC(=O)NC5=O)C7=O)CC4)CC3)cn2)N1CC(F)F` (stereo partly drawn) [E 322, 6-(1-(1-(6-((3R)-2-(2,2-difluoroethyl)-6-hydroxy-3-methyl-1,2,3,4-tetrahydroisoquinolin-1-yl)pyridin-3-yl)piperidine-4-carbonyl)piperidin-4-yl)-2-(2,6-dioxopiperidin-3-yl)-6,7-dihydropyrrolo[3,4-f]isoindole-1,3(2H,5H)-dione]: the DC50 is greater than 100 nM.

As to `O=C1CCC(N2C(=O)c3cc4c(cc3C2=O)CN(CC(=O)N2CCC3(CC2)CCN(c2ccc([C@@H]5c6ccc(O)cc6CCC56CCCC6)cc2)CC3)C4)C(=O)N1` (mixture of isomers) [E 179, Rac-2-(2,6-dioxopiperidin-3-yl)-6-(2-(9-(4-((R)-6′-hydroxy-3′,4′-dihydro-1′H-spiro[cyclopentane-1,2′-naphthalen]-1′-yl)phenyl)-3,9-diazaspiro[5.5]undecan-3-yl)-2-oxoethyl)-6,7-dihydropyrrolo[3,4-f]isoindole-1,3(2H,5H)-dione], the 50% degradation concentration (DC50) lay within 10 to 100 nM.

As for `C[C@@H]1Cc2c([nH]c3ccccc23)[C@@H](c2c(F)cc(N3CC(C(=O)N4CCC(CN5Cc6cc7c(cc6C5)C(=O)N(C5CCC(=O)NC5=O)C7=O)CC4)C3)cc2F)N1CC(F)F` (stereo partly drawn) [E 121, 6-((1-(1-(4-((1R,3R)-2-(2,2-difluoroethyl)-3-methyl-2,3,4,9-tetrahydro-1H-pyrido[3,4-b]indol-1-yl)-3,5-difluorophenyl)azetidine-3-carbonyl)piperidin-4-yl)methyl)-2-(2,6-dioxopiperidin-3-yl)-6,7-dihydropyrrolo[3,4-f]isoindole-1,3(2H,5H)-dione], the DC50 was less than 10 nM.

As for `O=C1CCC(N2C(=O)c3cc4c(cc3C2=O)CN(CC(=O)N2CC3(CC(Oc5ccc([C@@H]6c7ccc(O)cc7CC[C@H]6c6ccccc6)cc5)C3)C2)C4)C(=O)N1` (stereo partly drawn) [E 221, 2-(2,6-dioxopiperidin-3-yl)-6-(2-(6-(4-((1R,2R)-6-hydroxy-2-phenyl-1,2,3,4-tetrahydronaphthalen-1-yl)phenoxy)-2-azaspiro[3.3]heptan-2-yl)-2-oxoethyl)-6,7-dihydropyrrolo[3,4-f]isoindole-1,3(2H,5H)-dione], the half-maximal degradation concentration (DC50) was greater than 100 nM. In the case of `CN(C1CN(c2ccc([C@@H]3c4ccc(O)cc4CC[C@@H]3c3ccccc3)cc2)C1)[C@H]1CC[C@H](C(=O)N2Cc3cc4c(cc3C2)C(=O)N(C2CCC(=O)NC2=O)C4)CC1` (single isomer, unassigned) [E 355], the 50% degradation concentration (DC50) is greater than 100 nM. Regarding `C[C@@H]1Cc2cc(O)ccc2[C@@H](c2ccc(N3CCC(C(=O)N4CC(CN5Cc6cc7c(cc6C5)C(=O)N(C5CCC(=O)NC5=O)C7=O)C4)CC3)cc2)N1CC(F)F` (stereo partly drawn) [E 350, 6-((1-(1-(4-((1R,3R)-2-(2,2-difluoroethyl)-6-hydroxy-3-methyl-1,2,3,4-tetrahydroisoquinolin-1-yl)phenyl)piperidine-4-carbonyl)azetidin-3-yl)methyl)-2-(2,6-dioxopiperidin-3-yl)-6,7-dihydropyrrolo[3,4-f]isoindole-1,3(2H,5H)-dione], the 50% degradation concentration (DC50) was greater than 100 nM. On to `O=C1CCC(N2C(=O)c3cc4c(cc3C2=O)CN(CCN2CC3(CCN(c5ccc([C@@H]6c7ccc(O)cc7CC[C@@H]6c6ccccc6)cc5)CC3)C2)C4)C(=O)N1` (mixture of isomers) [E 267, rac-2-(2,6-dioxopiperidin-3-yl)-6-(2-(7-(4-((1R,2S)-6-hydroxy-2-phenyl-1,2,3,4-tetrahydronaphthalen-1-yl)phenyl)-2,7-diazaspiro[3.5]nonan-2-yl)ethyl)-6,7-dihydropyrrolo[3,4-f]isoindole-1,3(2H,5H)-dione], for which the DC50 lay in the range of 10 to 100 nM. Regarding `CN(C1CCN(c2ccc([C@@H]3c4ccc(O)cc4CC[C@@H]3c3ccccc3)cc2)CC1)N1CCC(CN2Cc3cc4c(cc3C2)C(=O)N(C2CCC(=O)NC2=O)C4)CC1` (mixture of isomers) [E 300, 3-(6-((1-((1-(4-((1R,2S)-6-hydroxy-2-phenyl-1,2,3,4-tetrahydronaphthalen-1-yl)phenyl)piperidin-4-yl)(methyl)amino)piperidin-4-yl)methyl)-1-oxo-3,5,6,7-tetrahydropyrrolo[3,4-f]isoindol-2(1H)-yl)piperidine-2,6-dione], the half-maximal degradation concentration (DC50) is greater than 100 nM. In the case of `O=C1CCC(N2C(=O)c3cc4c(cc3C2=O)CN(CC2(F)CCN(CC3CN(c5ccc([C@@H]6c7ccc(O)cc7CC[C@@H]6c6ccccc6)cc5)C3)CC2)C4)C(=O)N1` (stereo partly drawn) [E245, 2-(2,6-dioxopiperidin-3-yl)-6-((4-fluoro-1-((1-(4-((1R,2S)-6-hydroxy-2-phenyl-1,2,3,4-tetrahydronaphthalen-1-yl)phenyl)azetidin-3-yl)methyl)piperidin-4-yl)methyl)-6,7-dihydropyrrolo[3,4-f]isoindole-1,3(2H,5H)-dione], the DC50 was greater than 100 nM.

As to `C[C@@H]1Cc2c([nH]c3ccccc23)[C@@H](c2c(F)cc(N3CC(C(=O)N4CCC(CN5Cc6cc7c(cc6C5)C(=O)N(C5CCC(=O)NC5=O)C7=O)CC4)C3)cc2F)N1CC(F)F` (stereo partly drawn) [E 216, 6-((1-(1-(4-((1R,3R)-2-(2,2-difluoroethyl)-3-methyl-2,3,4,9-tetrahydro-1H-pyrido[3,4-b]indol-1-yl)-3,5-difluorophenyl)azetidine-3-carbonyl)piperidin-4-yl)methyl)-2-(2,6-dioxopiperidin-3-yl)-6,7-dihydropyrrolo[3,4-f]isoindole-1,3(2H,5H)-dione], the half-maximal degradation concentration (DC50) was less than 10 nM. For the compound `O=C1CCC(N2C(=O)c3cc4c(cc3C2=O)CN(CC(=O)N2CCC3(CC2)CCN(c2ccc([C@@H]5c6ccc(O)cc6CC[C@@H]5c5ccccc5)cc2)CC3)CC4)C(=O)N1` (mixture of isomers) [E 172, rac-2-(2,6-dioxopiperidin-3-yl)-6-(2-(9-(4-((1R,2S)-6-hydroxy-2-phenyl-1,2,3,4-tetrahydronaphthalen-1-yl)phenyl)-3,9-diazaspiro[5.5]undecan-3-yl)-2-oxoethyl)-5,6,7,8-tetrahydro-1H-pyrrolo[3,4-g]isoquinoline-1,3(2H)-dione], the DC50 fell in the range of 10 to 100 nM. For `C[C@@H]1Cc2cc(O)ccc2[C@@H](c2c(F)cc(N3CCC(N4CC(CN5Cc6cc7c(cc6C5)C(=O)N(C5CCC(=O)NC5=O)C7=O)C4)CC3)cc2F)N1CC(F)F` (stereo partly drawn) [E 46, 6-((1-(1-(4-((1S,3R)-2-(2,2-difluoroethyl)-6-hydroxy-3-methyl-1,2,3,4-tetrahydroisoquinolin-1-yl)-3,5-difluorophenyl)piperidin-4-yl)azetidin-3-yl)methyl)-2-(2,6-dioxopiperidin-3-yl)-6,7-dihydropyrrolo[3,4-f]isoindole-1,3(2H,5H)-dione], the DC50 was greater than 100 nM.

Still in this assay, the particulars now being: compounds 16 hours, Table A does not say whether T47D or MCF7, read-out: Potency (DC50).
Turning to `O=C1CCC(N2C(=O)c3cc4c(cc3C2=O)CN(CC2COC3(CCN(c5ccc([C@@H]6c7ccc(O)cc7CC[C@@H]6c6ccccc6)cc5)CC3)C2)C4)C(=O)N1` (stereo partly drawn) [E 515, 2-(2,6-dioxopiperidin-3-yl)-6-((8-(4-((1R,2S)-6-hydroxy-2-phenyl-1,2,3,4-tetrahydronaphthalen-1-yl)phenyl)-1-oxa-8-azaspiro[4.5]decan-3-yl)methyl)-6,7-dihydropyrrolo[3,4-f]isoindole-1,3(2H,5H)-dione], the half-maximal degradation concentration (DC50) lay within 10 to 100 nM. As to `C[C@@H]1Cc2c([nH]c3ccccc23)[C@@H](c2cnc(N3CCC4(CC3)CC(CN3Cc5cc6c(cc5C3)C(=O)N(C3CCC(=O)NC3=O)C6=O)C4)nc2)N1CC(F)F` (stereo partly drawn) [E 474, 6-((7-(5-((1R,3R)-2-(2,2-difluoroethyl)-3-methyl-2,3,4,9-tetrahydro-1H-pyrido[3,4-b]indol-1-yl)pyrimidin-2-yl)-7-azaspiro[3.5]nonan-2-yl)methyl)-2-(2,6-dioxopiperidin-3-yl)-6,7-dihydropyrrolo[3,4-f]isoindole-1,3(2H,5H)-dione], the 50% degradation concentration (DC50) is 10 to 100 nM.
